# Laboratory results taken from patent US4235886A, “Cyclic hexapeptide somatostatin analogs” (Merck & Co., Inc., priority 1979, dated 1980).
# Non-standard residues stand in square brackets, D forms with d. Residues, ends and D or L forms follow the SMILES beside them. dTrp(5-F) = N[C@H](Cc1c[nH]c2ccc(F)cc12)C(=O)O; Orn = NCCC[C@H](N)C(=O)O; Abu = CC[C@H](N)C(=O)O
# Experiments:
# [1] = system: Rat pituitaries (growth hormone release); assay: In vitro inhibition of growth hormone release from cultured rat pituitary cells; format: cell-based; conditions: multiples or fractions of the effect of somatostatin (= 1), fiducial limits in parentheses, 4 hours incubation, radioimmunoassay
# Procedure: The instant cyclic hexapeptide analogs of somatostatin are tested and compared with the effects of somatostatin in an in vitro test for the inhibition of growth hormone. The test is described as follows:
# "Rat pituitaries were isolated according to the procedures of Vale and Grant "In vitro Pituitary Hormone Secretion Assay for Hypophysiotropic Substances" in Methods in Enzymology. Vol. XXXVII, eds. O'Malley, B. W. and Hardman, J. G. (Academic Press, Inc., New York) pp. 5-93 (1975).
# After 4 days in culture, the cells were washed and incubated for 4 hours in Dulbecco-modified Eagle's medium in the presence or absence of graded doses of each analog or somatostatin. The medium was then collected for subsequent growth hormone determination by a double antibody radioimmunoassay for rat growth hormone."
# The test results for some of the compounds of this invention are recorded below with the results for somatostatin listed first and given the arbitrary value of 1. The results for the instant compounds are given as multiples or fractions of the effect of somatostatin. The numbers in parentheses are the fiducial limits for the number preceding. The first of the instant compounds listed is the compound prepared in Example 1-5. The compound is written slightly different, however, to conform to the order of the amino acids found in somatostatin.
# [2] = system: pentagastrin evoked gastric secretion in the chronic fistula dog; assay: Inhibition of pentagastrin evoked gastric secretion in the chronic fistula dog; format: in vivo; conditions: dose 0.8 μg/ml./min., infusion 0-60 min, pentagastrin 2.5 μg./kg./hour i.v., relative to placebo trial; for Gastric Secretion % Inhibition, Acid Concentration, 0-30 / Gastric Secretion % Inhibition, Vol., 0-30: 0-30 min; for Gastric Secretion % Inhibition, Acid Concentration, 30-60 / Gastric Secretion % Inhibition, Vol., 30-60: 30-60 min; for Gastric Secretion % Inhibition, Acid Concentration, 60-90 / Gastric Secretion % Inhibition, Vol., 60-90: 60-90 min; for Gastric Secretion % Inhibition, Acid Concentration, 90-120 / Gastric Secretion % Inhibition, Vol., 90-120: 90-120 min; for Gastric Secretion % Inhibition, Vol., 0-30 / Gastric Secretion % Inhibition, Vol., 30-60 / Gastric Secretion % Inhibition, Vol., 60-90 / Gastric Secretion % Inhibition, Vol., 90-120: volume
# Procedure: The effects of the instant cyclichexapeptide analogs of somatostatin are determined by the following procedure.
# Compounds were tested for their ability to inhibit pentagastrin evoked gastric secretion in the chronic fistula dog. Female beagle dogs with a chronic gastric fistula were given pentagastrin (2.5 μg./kg./hour, i.v. from -60 to 120 min.) and gastric outputs were collected via the fistula cannula. Samples were analyzed at 30 minute intervals for volume (ml.) and titratable acid (mEq/L) (Titration to pH 7 with 0.01 N NaOH); total acid output (mEq) was calculated as the production of output volume and acid concentration. Test compounds were infused at a constant rate from 0 to 60 minutes. Data have been expressed as percent change of total acid output relative to a placebo trial in the same animals.
smiles,measurement,setting,value
C[C@@H]1NC(=O)[C@@H]2CCCN2C(=O)[C@H](Cc2ccccc2)NC(=O)[C@H]([C@@H](C)O)NC(=O)[C@H](CCCCN)NC(=O)[C@@H](Cc2c[nH]c3ccccc23)NC1=O [Cyclo(Pro-Ala-d-Trp-Lys-Thr-Phe)] (cyclo(A[dW]KTFP)),Growth Hormone Release Inhibition In Vitro,[1],0.19 (0.1-0.38)
CC(C)C[C@@H]1NC(=O)[C@@H]2CCCN2C(=O)[C@H](Cc2ccccc2)NC(=O)[C@H]([C@@H](C)O)NC(=O)[C@H](CCCCN)NC(=O)[C@@H](Cc2c[nH]c3ccccc23)NC1=O [Cyclo(Pro-Leu-D-Trp-Lys-Thr-Phe)] (cyclo(FPL[dW]KT)),Growth Hormone Release Inhibition In Vitro,[1],0.29 (0.13-0.57)
C[C@@H](O)[C@@H]1NC(=O)[C@H](CCCCN)NC(=O)[C@@H](Cc2c[nH]c3ccc(F)cc23)NC(=O)[C@H](Cc2ccccc2)NC(=O)[C@@H]2CCCN2C(=O)[C@H](Cc2ccccc2)NC1=O [Cyclo(Pro-Phe-D-5F-Trp-Lys-Thr-Phe)] (cyclo(FPF[dTrp(5-F)]KT)),Growth Hormone Release Inhibition In Vitro,[1],2.4 (2.1-2.8)
CC(C)C[C@@H]1NC(=O)[C@H]([C@@H](C)O)NC(=O)[C@H](CCCCN)NC(=O)[C@@H](Cc2c[nH]c3ccccc23)NC(=O)[C@H](Cc2ccccc2)NC(=O)[C@@H]2CCCN2C1=O [Cyclo(Pro-Phe-D-Trp-Lys-Thr-Leu)] (cyclo(F[dW]KTLP)),Growth Hormone Release Inhibition In Vitro,[1],0.16 (0.07-0.33)
C[C@@H](O)[C@@H]1NC(=O)[C@H](CCCCN)NC(=O)[C@@H](Cc2c[nH]c3ccccc23)NC(=O)[C@H](Cc2ccccc2)NC(=O)[C@@H]2CCCN2C(=O)[C@H](Cc2ccccc2)NC1=O [Cyclo(Pro-Phe-D-Trp-Lys-Thr-Phe)] (cyclo(PF[dW]KTF)),Growth Hormone Release Inhibition In Vitro,[1],1.71 (1.31-2.32)
same,"Gastric Secretion % Inhibition, Acid Concentration, 0-30",[2],18%
same,"Gastric Secretion % Inhibition, Acid Concentration, 30-60",[2],47%
same,"Gastric Secretion % Inhibition, Acid Concentration, 60-90",[2],54%
same,"Gastric Secretion % Inhibition, Acid Concentration, 90-120",[2],68%
same,"Gastric Secretion % Inhibition, Vol., 0-30",[2],88%
same,"Gastric Secretion % Inhibition, Vol., 30-60",[2],98%
same,"Gastric Secretion % Inhibition, Vol., 60-90",[2],95%
same,"Gastric Secretion % Inhibition, Vol., 90-120",[2],86%
NCCCC[C@@H]1NC(=O)[C@@H](Cc2c[nH]c3ccccc23)NC(=O)[C@H](Cc2ccccc2)NC(=O)[C@@H]2CCCN2C(=O)[C@H](Cc2ccccc2)NC(=O)[C@H](CO)NC1=O [Cyclo(Pro-Phe-D-Trp-Lys-ser-Phe)] (cyclo(FPF[dW]KS)),Growth Hormone Release Inhibition In Vitro,[1],1.4 (1.1-1.7)
CC[C@@H]1NC(=O)[C@H](CCCCN)NC(=O)[C@@H](Cc2c[nH]c3ccccc23)NC(=O)[C@H](Cc2ccccc2)NC(=O)[C@@H]2CCCN2C(=O)[C@H](Cc2ccccc2)NC1=O [Cyclo(Pro-Phe-D-Trp-Lys-α-ABU-Phe)] (cyclo([Abu]FPF[dW]K)),Growth Hormone Release Inhibition In Vitro,[1],0.82 (0.57-1.18)
C[C@@H](O)[C@@H]1NC(=O)[C@H](CCCN)NC(=O)[C@@H](Cc2c[nH]c3ccccc23)NC(=O)[C@H](Cc2ccccc2)NC(=O)[C@@H]2CCCN2C(=O)[C@H](Cc2ccccc2)NC1=O [Cyclo(Pro-Phe-D-Trp-Orn-Thr-Phe)] (cyclo(FPF[dW][Orn]T)),Growth Hormone Release Inhibition In Vitro,[1],0.16(0.15-0.17)
C[C@@H](O)[C@@H]1NC(=O)[C@H](CCCCN)NC(=O)[C@H](Cc2c[nH]c3ccccc23)NC(=O)[C@H](Cc2ccccc2)NC(=O)[C@@H]2CCCN2C(=O)[C@H](Cc2ccccc2)NC1=O [Cyclo(Pro-Phe-L-Trp-Lys-Thr-Phe)] (cyclo(FPFWKT)),Growth Hormone Release Inhibition In Vitro,[1],1.59 (1.33-1.92)
C[C@@H](O)[C@@H]1NC(=O)[C@H](CCCCN)NC(=O)[C@@H](Cc2c[nH]c3ccccc23)NC(=O)[C@H](Cc2ccc(O)cc2)NC(=O)[C@@H]2CCCN2C(=O)[C@H](Cc2ccccc2)NC1=O [Cyclo(Pro-Tyr-D-Trp-Lys-Thr-Phe)] (cyclo(FPY[dW]KT)),Growth Hormone Release Inhibition In Vitro,[1],14.3 (8.3-33.0)
same,"Gastric Secretion % Inhibition, Acid Concentration, 0-30",[2],30%
same,"Gastric Secretion % Inhibition, Acid Concentration, 30-60",[2],49%
same,"Gastric Secretion % Inhibition, Acid Concentration, 60-90",[2],52%
same,"Gastric Secretion % Inhibition, Acid Concentration, 90-120",[2],27%
same,"Gastric Secretion % Inhibition, Vol., 0-30",[2],67%
same,"Gastric Secretion % Inhibition, Vol., 30-60",[2],87%
same,"Gastric Secretion % Inhibition, Vol., 60-90",[2],87%
same,"Gastric Secretion % Inhibition, Vol., 90-120",[2],64%
